Laboratory results from EPA's ToxValDB 9.5 (doi:10.2903/j.efsa.2005.102r).
In brackets after ≈: the same amount, converted by molar mass.

Key:
[1] = system: Anas platyrhynchos; conditions: reproductive, duration: 5 days, oral, feed
[2] = system: Apis mellifera; conditions: acute, duration: 48 hours, mortality
[3] = system: Canidae; conditions: oral, Dog Other
[4] = system: Colinus virginianus; conditions: oral, diet
[5] = system: Daphnia magna; conditions: chronic/long-term; duration: 21 days
[6] = system: Folsomia candida; conditions: chronic/long-term; duration: 28 days
[7] = system: Gammarus pulex; conditions: chronic/long-term; duration: 28 days
[8] = system: Neomysis kadiakensis
[9] = system: Oncorhynchus mykiss
[10] = system: Pontoscolex corethrurus; conditions: chronic/long-term; reproduction
[11] = system: Rattus norvegicus
[12] = system: Tagia sp.; conditions: acute; mortality
[13] = system: Aphidius rhopalosiphi; experiment: LR50; higher = less toxic; conditions: not reported; mortality
[14] = system: Typhlodromus pyri; experiment: LR50; higher = less toxic; conditions: not reported; mortality
[15] = acute, duration: 96 hours, mortality

## CO/N=C(/C1=NOCCO1)c1ccccc1Oc1ncnc(Oc2ccccc2Cl)c1F [Fluoxastrobin]
[1]
  NOEC: 285 mg/kg-day
[1]; mortality
  LC50: > 2190 mg/kg-day
[2]; dermal
  LD50: > 200 µg/piece
[2]; oral, unspecified
  LD50: > 843 µg/piece
[3]; chronic, duration: 1 years, clinical chemistry
  NOAEL: 3 mg/kg-day
[3]; subchronic, duration: 90 days, body weight
  NOAEL: 30 mg/kg-day
[3]; subchronic, duration: 90 days, clinical chemistry
  NOAEL: 3 mg/kg-day
[4]; acute, duration: 5 days, mortality
  LC50: > 966 mg/kg-day
[4]; reproduction developmental, duration: 5 days
  NOEC: 151 mg/kg-day
[4]; short-term, mortality
  NOEL: 2000 mg/kg-day
[5]
  NOEC: 0.18 mg/L
[6]
  NOEC: 5 mg/kg
[7]
  NOEC: 0.0316 mg/L
[8]; [15]
  LC50: 0.0604 µg/mL (≈ 0.132 µM)
[8]; chronic/long-term, duration: 28 days
  NOEC: 0.00061 mg/L
[9]; [15]
  LC50: 0.435 µg/mL (≈ 0.948 µM)
[9]; chronic/long-term, duration: 95 days, other
  NOEC: 0.0286 mg/L
[10]
  NOEL: 1.33 mg/kg
[11]; acute, oral, mortality
  LD50: > 2000 mg/kg
[11]; developmental, development
  NOAEL: > 742 mg/kg-day
[12]
  LC50: > 500 mg/kg
[13]
  LR50: 34.1 g/ha
[14]
  LR50: 122 g/ha
